The text below walks through data of patent publication US7141533B2, “Hetaryl-substituted heterocycles” (Bayer CropScience AG, priority 2000, dated 2006).

What all share (assay type): in vivo
The test system of one assay is Meloidogyne incognita. The experiment in a line: Meloidogyne test. The following applies: Meloidogyne incognita egg/larvae on lettuce in sand. The procedure: [table] To produce a suitable preparation of active compound, 1 part by weight of active compound is mixed with the stated amounts of solvent and emulsifier, and the concentrate is diluted with water to the desired concentration. Containers are filled with sand, solution of active compound, Meloidogyne incognita egg/larvae suspension and lettuce seeds. The lettuce seeds germinate and the plants develop. On the roots, galls are formed. After the desired period of time, the nematicidal action in % is determined using the formation of galls as a measure. 100% means that no galls have been found; 0% means that the number of galls on the treated plants corresponds to that on the untreated control.

Assay [1] concerns peach aphid (Myzus persicae). The experiment in a line: Myzus test. The conditions noted are these: cabbage leaves dipped. Here is the method: [table] To produce a suitable preparation of active compound, 1 part by weight of active compound is mixed with the stated amounts of solvent and emulsifier, and the concentrate is diluted with emulsifier-containing water to the desired concentration. Cabbage leaves (Brassica oleracea) which are heavily infested by the peach aphid (Myzus persicae) are treated by being dipped into the preparation of active compound of the desired concentration. After the desired period of time, the kill in % is determined. 100% means that all aphids have been killed; 0% means that none of the aphids have been killed.

The test system of assay [2] is larvae of the mustard beetle (Phaedon cochleariae). The experiment in a line: Phaedon larvae test. The following applies: cabbage leaves dipped. The procedure:
(§1) [table] To produce a suitable preparation of active compound, 1 part by weight of active compound is mixed with the stated amounts of solvent and emulsifier, and the concentrate is diluted with emulsifier-containing water to the desired concentration. Cabbage leaves (Brassica oleracea) are treated by being dipped into the preparation of active compound of the desired concentration and are populated with the larvae of the mustard beetle (Phaedon cochleariae) while the leaves are still moist. After the desired period of time, the kill in % is determined. 100% means that all beetle larvae have been killed; 0% means that none of the beetle larvae have been killed.

The test system of assay [3] is caterpillars of the army worm (Spodoptera frugiperda). The experiment in a line: Spodoptera frugiperda test. The conditions noted are these: cabbage leaves dipped. Here is the method:
as §1, with “caterpillars” for “the larvae”, “army worm (Spodoptera frugiperda)” for “mustard beetle (Phaedon cochleariae)”, “caterpillars” for “beetle larvae”

Assay [4] has as its system Alopecurus. The experiment in a line: Pre-emergence test. The following applies: 125 g ai/ha, after three weeks. The procedure: (§2) [table] To produce a suitable preparation of active compound, 1 part by weight of active compound is mixed with the stated amount of solvent, the stated amount of emulsifier is added and the concentrate is diluted with water to the desired concentration. Seeds of the test plants are sown in normal soil. After about 24 hours, the soil is sprayed with the preparation of active compound such that the particular amounts of active compound desired are applied per unit area. The concentration of the spray liquor is chosen such that the particular amounts of active compound desired are applied in 1000 1 of water/ha. After three weeks, the degree of damage to the plants is rated in % damage in comparison to the development of the untreated control. [table]

Assay [5] has as its system Avena fatua. The experiment in a line: Pre-emergence test. The following applies: 125 g ai/ha, after three weeks. The procedure:
as §2

The test system of a further assay is Lolium. The experiment in a line: Pre-emergence test. The following applies: 125 g ai/ha, after three weeks. The procedure: as §2
In another assay the test system is Matricaria. The experiment in a line: Pre-emergence test. The conditions noted are these: 125 g ai/ha, after three weeks. Here is the method: as §2
Assay [6] relates to Setaria. The experiment in a line: Pre-emergence test. The conditions noted are these: 125 g ai/ha, after three weeks. The procedure:
as §2

The subject of assay [7] is oilseed rape. The experiment in a line: Pre-emergence test. The conditions noted are these: 125 g ai/ha, after three weeks. The procedure: as §2
Another assay has as its system sugar beet. The experiment in a line: Pre-emergence test. The following applies: 125 g ai/ha, after three weeks. The procedure: as §2
The subject of assay [8] is Alopecurus. The experiment in a line: Post-emergence test. The following applies: 250 g ai/ha, after three weeks. The procedure: as §2, with “Test plants” for “Seeds”, “a height of 5 to 15 cm” for “the test plants”, “are” for “are sown in normal soil. After about 24 hours, the soil is”
A further assay relates to Amaranthus. The experiment in a line: Post-emergence test. The conditions noted are these: 250 g ai/ha, after three weeks. The procedure: as §2, with “Test plants” for “Seeds”, “a height of 5 to 15 cm” for “the test plants”, “are” for “are sown in normal soil. After about 24 hours, the soil is”
The subject of assay [9] is Avena fatua. The experiment in a line: Post-emergence test. The following applies: 250 g ai/ha, after three weeks. The procedure: as §2, with “Test plants” for “Seeds”, “a height of 5 to 15 cm” for “the test plants”, “are” for “are sown in normal soil. After about 24 hours, the soil is”
The next assay concerns Chenopodium. The experiment in a line: Post-emergence test. The conditions noted are these: 250 g ai/ha, after three weeks. Here is the method: as §2, with “Test plants” for “Seeds”, “a height of 5 to 15 cm” for “the test plants”, “are” for “are sown in normal soil. After about 24 hours, the soil is”
Another assay concerns Echinochloa. The experiment in a line: Post-emergence test. The following applies: 250 g ai/ha, after three weeks. Here is the method:
as §2, with “Test plants” for “Seeds”, “a height of 5 to 15 cm” for “the test plants”, “are” for “are sown in normal soil. After about 24 hours, the soil is”

Assay [10] concerns Setaria. The experiment in a line: Post-emergence test. The conditions noted are these: 250 g ai/ha, after three weeks. The procedure: as §2, with “Test plants” for “Seeds”, “a height of 5 to 15 cm” for “the test plants”, “are” for “are sown in normal soil. After about 24 hours, the soil is”
In assay [11] the test system is oilseed rape. The experiment in a line: Post-emergence test. The following applies: 250 g ai/ha, after three weeks. Here is the method:
as §2, with “Test plants” for “Seeds”, “a height of 5 to 15 cm” for “the test plants”, “are” for “are sown in normal soil. After about 24 hours, the soil is”

In the case of `COC1CCC2(CC1)OC(=O)C(c1nc(-c3ccc(Cl)cc3)sc1C)=C2O` (stereo not drawn) [Example I-2-A-a-1], the “nematicidal action (formation of galls)” value in the assay on Meloidogyne incognita is reported as “good activity”. Also, the kill of aphids entry in assay [1] is “good activity”. In addition, in assay [2], the “kill of beetle larvae” value is on record as “good activity”. Further, the kill of caterpillars result in [3] was “good activity”. For the same compound, the “% damage Alopecurus” value in the assay on Alopecurus [4] is given as 90%; with Alopecurus [8], 80%. In addition, the figures for the “% damage Avena fatua” value with Avena fatua [5] and with Avena fatua [9] were 100% and 95%, respectively. Moreover, in the assay on Lolium, the “% damage Lolium” value is 100%. Moreover, in the assay on Matricaria, the “% damage Matricaria” value turned out to be 100%. The “% damage Setaria” value with Setaria [6] and in the assay on Setaria [10] was 100% in each case. The results for the “% damage oilseed rape” value with oilseed rape [7] and in the assay on oilseed rape [11] were 0% and 20%, respectively. Moreover, in the assay with sugar beet, the “% damage sugar beet” value came out at 0%. The “% damage Amaranthus” value in the assay on Amaranthus worked out at 70%. Further, the “% damage Chenopodium” value in the assay on Chenopodium came to 70%. Further, the “% damage Echinochloa” value in the assay on Echinochloa is 100%.
